This passage reports Ki results from ChEMBL document CHEMBL1123907 (J Med Chem, 1987).

Bounds are passed on as bounds.

Assay [1] can be described thus: Binding affinity against imipramine receptor was determined in homogenized rat cortex tissue using [3H]-imipramine as radioligand.
Assay [2] addresses Muscarinic acetylcholine receptor. Nature of the assay: Binding affinity against Muscarinic acetylcholine receptor was determined in homogenized rat cortex tissue using [3H]N-methylscopolamine as radioligand.

Regarding `CN(C)CCCN1c2ccccc2C(=O)Nc2cccnc21`, the Ki – broadly, a dissociation constant, usually derived from enzyme kinetics or from competition with a known ligand – turned out to be 15000 nM in assay [1] and 200 nM in assay [2]. Turning to `CN(C)CCC(=O)N1c2ccccc2C(=O)Nc2cccnc21`, the Ki in assay [1] was above 100000 nM; in assay [2] it was 45 nM. In the case of `CN1CCN(CC(=O)N2c3ccccc3C(=O)Nc3cccnc32)CC1` [PIRENZEPINE], the Ki in assay [1] was above 100000 nM. In the case of `CN(C)CCC(=O)N1c2ccccc2CCc2ccccc21`, the figures for the Ki in assay [1] and in assay [2] were 400 nM and 240 nM, respectively.

On to `CN(C)CCCN1c2ccccc2CCc2ccccc21` [IMIPRAMINE], for which the Ki in assay [1] is 12 nM; in assay [2] it was 65 nM. As to `CN1CCN(CC(=O)N2c3ccccc3NC(=O)c3ccccc32)CC1`, the Ki in assay [1] was above 100000 nM; in assay [2], 23 nM. Take `CN(C)CCCN1c2ccccc2NC(=O)c2ccccc21`: the Ki in assay [1] amounted to 4000 nM; in assay [2] it was 50 nM. For the molecule `CN1CCN(CC(=O)N2c3ccccc3CCc3ccccc32)CC1`, the Ki in assay [1] was above 100000 nM; in assay [2], 200 nM. Turning to `CN(C)CCC(=O)N1c2ccccc2NC(=O)c2ccccc21`, the Ki in assay [1] was above 100000 nM; in assay [2] it was 6 nM.
